Test results as given in publication PMC5117135 (ACS Chemical Biology, 2016).

How the values were obtained:
[1] = system: HHQ and PQS quinolone production in P. aeruginosa strain PA14; experiment: Inhibition of HHQ and PQS quinolone production, LC-MS/MS quantitation; format: cell-based, Pseudomonas aeruginosa; conditions: dose and time course over 24 h
[2] = system: P. aeruginosa PA14; experiment: Compound accumulation, LC-MS/MS quantitation of lysate; format: cell-based, Pseudomonas aeruginosa; conditions: 1000 μM extracellular, 30 min
[3] = system: MvfR; conditions: binding to and activation of MvfR; cited from earlier work
[4] = system: PqsA; conditions: read-out: Km as PqsA substrate; cited from earlier work

Nc1cccc(F)c1C(=O)O [6FABA, 6-Fluoroanthranilate]
lowest concentration that inhibited or delayed quinolone production [1]: 100 µM
penetration relative to the extracellular concentration applied [2]: 2–3%
intracellular concentration ([2]; PA14 in LB, OD600 ≈ 0.5, calculated based on CFU): 20 to 30 µM

CCCCCCCc1nc2ccccc2c(O)c1O [PQS, 3,4-dihydroxy-2-heptylquinoline]
potency on MvfR relative to HHQ [3]: 100 fold

Nc1ccccc1C(=O)O [anthranilate]
Km [4]: 8 µM

O=C(O)c1ccccc1 [benzoate]
Km [4]: 150 µM
